From ChEMBL document CHEMBL2375240, “The alpha-carbonic anhydrase from the thermophilic bacterium Sulfurihydrogenibium yellowstonense YO3AOP1 is highly susceptible to inhibition by sulfonamides” (Bioorg Med Chem, 2013)

Target: Carbonic anhydrase 1 (Homo sapiens, UniProt P00915)
Sequence (P00915 whole entry): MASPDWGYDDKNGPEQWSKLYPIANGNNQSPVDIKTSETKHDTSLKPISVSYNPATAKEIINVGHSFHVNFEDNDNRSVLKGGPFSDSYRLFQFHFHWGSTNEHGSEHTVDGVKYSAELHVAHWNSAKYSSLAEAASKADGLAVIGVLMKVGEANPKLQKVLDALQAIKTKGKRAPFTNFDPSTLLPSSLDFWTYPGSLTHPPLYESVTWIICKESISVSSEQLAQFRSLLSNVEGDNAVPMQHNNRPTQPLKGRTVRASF

Ki | SMILES
185 nM | Cn1nc(S(N)(=O)=O)s/c1=N/S(=O)(=O)c1ccc(N)cc1
23000 nM | NS(=O)(=O)c1nc2ccc(OCCO)cc2s1
55 nM | Nc1ccc2nc(S(N)(=O)=O)sc2c1
